# Reference: US11524012B1, “Quinolone analogs and their salts, compositions, and method for their use” (Senhwa Biosciences, Inc., priority 2018, dated 2022)
# Assay: Stability study of lyophilized Compound I with mannitol (Method A / Method B samples)
# Format: physicochemical
# Details: Method B sample
# Description: […] Each 30 mL Type I, clear glass sample vial with 20 mm Freeze Dry Stoppers (Flurotech™ coated) contained 150 mg of Compound I.
# At each time point, a vial was removed from the stored condition and reconstituted with 10 mL of D5W and analyzed by HPLC method as discussed in Example 5 at 1 month, 2 months, 3 months, and/or 6 months. In Tables 18-18e, RRT matches the Compounds as shown below.
# Sample Preparation—Method A: 10% Mannitol solution was prepared by weighing 200 g±1.0 g of mannitol into glass beaker, adding approximately 1500 mL of WFI (water for injection) to the beaker and stirring until mannitol was dissolved. The mannitol solution was transferred to a 2 L volumetric flask and made to volume with WFI, then poured back to the original beaker to sir and mix further. 1M HCl solution was prepared by adding 16.4 mL of HCl (37%) to a 200 mL volumetric flask containing approximately 100 mL of WFI, adding WFI to make 200 mL in volume, and inverting to mix the prepared solution.
# To a tared 2 L Schott bottle containing a magnetic stirrer and wrapped in aluminum foil, 1020 g±1.0 g of the 10% mannitol solution was added. Then, 58.4 g±0.05 g of the 1M HCl solution was added to the 2 L Schott bottle and stirred for approximately 10 minutes. The solution prepared in the 2 L Schott bottle was purged with nitrogen which was continued throughout the manufacturing process. 30.22 g of Compound I (free base) was weighed then added to the 2 L Schott bottle containing 10% mannitol solution and 1 M HCl solution with continual magnetic stirring. The container used to weigh Compound I was rinsed with 3×10 mL of WFI and added to the Schott bottle. After Compound I dissolved (approximately 40 minutes), additional 650 g of WFI was added to the Schott bottle and the solution was stirred for approximately 10 minutes. The pH of the Compound I solution (in Schott bottle) was measured then adjusted to pH 4.5±0.1 using 1 M HCl solution. After each addition of 1 M HCl solution, the solution was stirred for several minutes prior to verifying the pH. Once the pH was adjusted, nitrogen purging was stopped. The pH adjusted Compound I solution was further diluted with WFI to a target weight of 2040 g±1.0 g and stirred.
# The final solution (pH adjusted and diluted) was filtered (chain including PVD Fmembrane filter 0.45 μm and 0.22 μm; peristaltic filtration pump by Watson Marlow) in the Bigneat and the bottle containing the filtered solution was sealed. The filtered solution was pumped (Watson Marlow Flexicon PF6-B pump; 100 RPM) into 30 mL Schott Clear Glass vials (10.0 mL filtered solution each). The glass vials were partially stoppered with 20 mm Freeze Dry Stopper Flurotec (Daikyo Seiko) one vial at a time with sterilized utensils inside a fume hood (Envair B101+1.5R) and placed on freeze dryer trays. The freeze dryer trays were transferred into freeze dry chamber and vial probe was positioned (Lyostar II; FTS Kinetics). Lyophilization was performed using the lyophilization cycle listed below. After lyophilization cycle finished, the vials were back filled with N2 and the stopper was placed in situ, wiped down with isopropanol in the fume hood once removed from the freeze dryer, reconciled, then crimped. Seven vials out of 186 sample vials placed under the lyophilization cycle had smashed in the freeze dryer.
# Sample Preparation—Method B (dissolved oxygen content ≤1 ppm): 2 L WFI was poured into a Schott bottled and degassed for 30 minutes with N2 until dissolved oxygen content was ≤1 ppm (dissolved oxygen meter and probe; Mettler Toledo). 10% Mannitol solution was prepared by adding […] of mannitol and 1000 mL of degassed WFI to a tared 2 L Schott bottle containing a magnetic stirrer and wrapped in aluminum foil. To the Schott bottle containing mannitol, 15 mL of 2M HCl was added and stirred for approximately 10 minutes. The resulting solution was sparged with N2 while stirring until dissolved oxygen content was ≤1 ppm (approx. 30 min). […]
# [1] = −20° C., time not printed (2nd block, col 1)
# [2] = −20° C., time not printed (2nd block, col 2)
# [3] = −20° C., time not printed (2nd block, col 3)
# [4] = −20° C., time not printed (2nd block, col 4)
compound,measurement,setting,value
"Cc1cnc(CNC(=O)c2c(=O)c3ccc(N4CCCN(C)CC4)nc3n3c2sc2ccccc23)cn1 [Compound I, 2-(4-Methyl-[1,4]diazepan-1-yl)-5-oxo-5H-7-thia-1,11b-diaza-benzo[c]fluorene-6-carboxylic acid (5-methyl-pyrazin-2-ylmethyl)-amide]",Related Substances RRT 0.88,"25° C./60% RH, 24 months",0.05%
same,Related Substances RRT 1.05,"25° C./60% RH, 24 months",0.16%
same,Related Substances RRT 1.06,"25° C./60% RH, 24 months",0.17%
same,Related Substances Total,"25° C./60% RH, 24 months",Total: 0.4%
same,Water Content USP<921 Method 1c>,"25° C./60% RH, 24 months",1.33%
same,pH (USP<791>),"25° C./60% RH, 24 months",4.4
same,Appearance,"25° C./60% RH, Initial",White
same,Appearance (Reconstituted Solution),"25° C./60% RH, Initial","Clear, colorless"
same,Compound I by HPLC assay,"25° C./60% RH, Initial",100.2%
same,Related Substances RRT 0.96,"25° C./60% RH, Initial",0.05%
same,Related Substances RRT 1.04,"25° C./60% RH, Initial",0.05%
same,Related Substances RRT 1.06,"25° C./60% RH, Initial",0.17%
same,Related Substances RRT 1.08,"25° C./60% RH, Initial",0.06%
same,Related Substances Total,"25° C./60% RH, Initial",Total: 0.3%
same,Water Content USP<921 Method 1c>,"25° C./60% RH, Initial",1.12%
same,pH (USP<791>),"25° C./60% RH, Initial",4.6
same,Appearance,"−20° C., 1 month",White powder
same,Appearance (Reconstituted Solution),"−20° C., 1 month","Clear, colorless"
same,Compound I by HPLC assay,"−20° C., 1 month",100.9%
same,Reconstitution Time,"−20° C., 1 month",65 s
same,Related Substances RRT 1.06,"−20° C., 1 month",RRT 1.06: 0.16%
same,Related Substances RRT 1.08,"−20° C., 1 month",RRT 1.08: 0.06%
same,Related Substances Total,"−20° C., 1 month",Total: 0.2%
same,Water Content USP<921 Method 1c>,"−20° C., 1 month",1.13%
same,pH (USP<791>),"−20° C., 1 month",4.4
same,Appearance,"−20° C., 3 months",Off-white powder
same,Appearance (Reconstituted Solution),"−20° C., 3 months","Clear, colorless"
same,Compound I by HPLC assay,"−20° C., 3 months",99.5%
same,Related Substances RRT 1.04,"−20° C., 3 months",RRT 1.04: 0.08%
same,Related Substances RRT 1.05,"−20° C., 3 months",RRT 1.05: 0.18%
same,Related Substances Total,"−20° C., 3 months",Total: 0.3%
same,Water Content USP<921 Method 1c>,"−20° C., 3 months",1.33%
same,pH (USP<791>),"−20° C., 3 months",4.4
same,Appearance,"−20° C., 6 months",Off-white powder
same,Appearance (Reconstituted Solution),"−20° C., 6 months","Clear, colorless"
same,Compound I by HPLC assay,"−20° C., 6 months",99.7%
same,Related Substances RRT 1.05,"−20° C., 6 months",RRT 1.05: 0.13%
same,Related Substances Total,"−20° C., 6 months",Total: 0.1%
same,Water Content USP<921 Method 1c>,"−20° C., 6 months",1.24%
same,pH (USP<791>),"−20° C., 6 months",4.5
same,Appearance,"−20° C., Initial",White powder
same,Appearance (Reconstituted Solution),"−20° C., Initial","Clear, colorless"
same,Compound I by HPLC assay,"−20° C., Initial",100.2%
same,Related Substances RRT 0.96,"−20° C., Initial",RRT 0.96: 0.05%
same,Related Substances RRT 1.04,"−20° C., Initial",RRT 1.04: 0.05%
same,Related Substances RRT 1.06,"−20° C., Initial",RRT 1.06: 0.17%
same,Related Substances RRT 1.08,"−20° C., Initial",RRT 1.08: 0.06%
same,Related Substances Total,"−20° C., Initial",Total:0.3%
same,Water Content USP<921 Method 1c>,"−20° C., Initial",1.12%
same,pH (USP<791>),"−20° C., Initial",4.6
same,Appearance,[1],Off-white powder
same,Appearance (Reconstituted Solution),[1],"Clear, colorless"
same,Compound I by HPLC assay,[1],100.8%
same,Related Substances RRT 1.05,[1],RRT 1.05: 0.13%
same,Related Substances Total,[1],Total: 0.1%
same,Water Content USP<921 Method 1c>,[1],1.30%
same,pH (USP<791>),[1],4.6
same,Appearance,[2],Off-white powder
same,Appearance (Reconstituted Solution),[2],"Clear, colorless"
same,Compound I by HPLC assay,[2],101.9%
same,Related Substances RRT 1.05,[2],RRT 1.05: 0.13%
same,Related Substances Total,[2],Total: 0.1%
same,Water Content USP<921 Method 1c>,[2],1.29%
same,pH (USP<791>),[2],4.5
same,Appearance,[3],Off-white powder
same,Appearance (Reconstituted Solution),[3],"Clear, colorless"
same,Compound I by HPLC assay,[3],101.3%
same,Related Substances RRT 1.05,[3],RRT 1.05: 0.12%
same,Related Substances Total,[3],Total: 0.1%
same,Water Content USP<921 Method 1c>,[3],1.10%
same,pH (USP<791>),[3],4.5
same,Appearance,[4],Off-white powder
same,Appearance (Reconstituted Solution),[4],"Clear, colorless"
same,Compound I by HPLC assay,[4],98.1%
same,Related Substances RRT 1.05,[4],RRT 1.05: 0.10%
same,Related Substances Total,[4],Total: 0.1%
same,Water Content USP<921 Method 1c>,[4],1.10%
same,pH (USP<791>),[4],4.4
